What was measured:
ACHN cells = assay: Cell Titer Glo viability assay, ACHN cells; assay type: cell-based; settings: Homo sapiens, 144 h, absolute EC50
How it was run: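 Cells grown in MEM with 10% FCS were seeded at 500 (A427), 400 (ACHN) or 250 (DAOY) per well and treated the next day with compound at 17 to 10 000 nM. Viability relative to untreated control was read at 144 h by CellTiter-Glo 2.0.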

[1] = target: T1, Myt1 kinase (CDK1 Thr14 phosphorylation in ACHN renal cell carcinoma cells) (Homo sapiens, UniProt Q99640); assay: AlphaLISA assay, Myt1 kinase target engagement (phospho-CDK1 Thr14) in ACHN cells; assay type: cell-based; settings: ACHN cells (marked *); 4 h treatment
T1 construct: pCDK1 Thr14 AlphaLISA read-out
T1 sequence (Q99640 1-499): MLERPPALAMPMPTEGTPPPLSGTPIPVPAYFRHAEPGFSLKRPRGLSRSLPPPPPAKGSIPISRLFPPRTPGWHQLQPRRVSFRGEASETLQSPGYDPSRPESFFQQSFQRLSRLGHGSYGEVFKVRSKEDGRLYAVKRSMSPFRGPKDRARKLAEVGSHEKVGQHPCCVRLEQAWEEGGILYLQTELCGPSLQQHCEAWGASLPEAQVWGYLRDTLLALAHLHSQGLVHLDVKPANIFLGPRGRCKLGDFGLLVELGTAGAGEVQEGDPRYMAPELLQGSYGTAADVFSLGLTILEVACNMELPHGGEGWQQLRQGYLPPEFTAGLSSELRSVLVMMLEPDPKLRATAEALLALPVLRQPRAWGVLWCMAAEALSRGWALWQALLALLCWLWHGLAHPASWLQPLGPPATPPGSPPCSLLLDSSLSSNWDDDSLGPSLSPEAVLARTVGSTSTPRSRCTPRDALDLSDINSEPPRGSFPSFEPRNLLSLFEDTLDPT
Protocol: Each of an ACHN renal cell carcinoma cell line (ATCC) and a DAOY medulloblastoma cell line, and an A427 lung cancer line were cultured in Minimum Essential Medium Eagle supplemented with 10% fetal calf serum (Sigma), 1% Penicillin-Streptomycin and 10 mM HEPES buffer (HyClone). Cell cultures were kept in a humidified incubator at 37 °C and 5% CO2. Cells were routinely tested for Mycoplasma contamination.
For target engagement assessment of Myt1 kinase inhibition, quantification of Cdk1 phosphorylated on threonine 14 was detected using the AlphaLISA® SureFire® Ultra™ Human Phospho-CDK1 (Thr14) assay (Perkin Elmer). DAOY or ACHN cells were seeded into tissue culture treated 96-well plates (VWR) to a density of 10,000 or 20,000 cells per well respectively. 24 h post seeding cells were treated for 4 h with compounds at concentrations ranging from 7 to 5000 nM. Cells were washed with PBS and lysed in 50 μl AlphaLISA lysis buffer before freezing at −80 C. Ten ul of the lysate was transferred to 384 well plates and incubated with AlphaLISA donor and acceptor beads according to the manufacturer's instructions. Dose response curves and EC50 values were calculated and visualized using GraphPad Prism version 9. Target engagement for Myt1 kinase can also be measured using the same AlphaLISA assay in OVCAR3 cells, an ovarian cancer cell line. NIH:OVCAR-3 (OVCAR3) cells are cultured in RPMI-1640 medium supplemented with 0.01 mg/ml insulin, 20% FBS, 1% Penicillin-Streptomycin and 10 mM HEPES buffer. 14,000 cells per well are seeded into 96 well tissue culture plates in full medium. Twenty-four hours post seeding, cells are treated with compound for 4 hours at concentrations ranging from 0.017 nM to 1000 nM.

[2] = target: T2, Wee1A kinase (CDK1 Tyr15 phosphorylation in ACHN renal cell carcinoma cells) (Homo sapiens, UniProt P30291); assay: High-content imaging of pCdk1 Y15, Wee1A kinase target engagement in ACHN cells; assay type: cell-based; settings: 4 h treatment, nuclear positivity for pCdk1 Y15 vs DMSO control, read-out: CDK1 Tyr15 Phosphorylation EC50
T2 construct: pCDK1 Tyr15 immunofluorescence read-out
T2 sequence (P30291 whole entry): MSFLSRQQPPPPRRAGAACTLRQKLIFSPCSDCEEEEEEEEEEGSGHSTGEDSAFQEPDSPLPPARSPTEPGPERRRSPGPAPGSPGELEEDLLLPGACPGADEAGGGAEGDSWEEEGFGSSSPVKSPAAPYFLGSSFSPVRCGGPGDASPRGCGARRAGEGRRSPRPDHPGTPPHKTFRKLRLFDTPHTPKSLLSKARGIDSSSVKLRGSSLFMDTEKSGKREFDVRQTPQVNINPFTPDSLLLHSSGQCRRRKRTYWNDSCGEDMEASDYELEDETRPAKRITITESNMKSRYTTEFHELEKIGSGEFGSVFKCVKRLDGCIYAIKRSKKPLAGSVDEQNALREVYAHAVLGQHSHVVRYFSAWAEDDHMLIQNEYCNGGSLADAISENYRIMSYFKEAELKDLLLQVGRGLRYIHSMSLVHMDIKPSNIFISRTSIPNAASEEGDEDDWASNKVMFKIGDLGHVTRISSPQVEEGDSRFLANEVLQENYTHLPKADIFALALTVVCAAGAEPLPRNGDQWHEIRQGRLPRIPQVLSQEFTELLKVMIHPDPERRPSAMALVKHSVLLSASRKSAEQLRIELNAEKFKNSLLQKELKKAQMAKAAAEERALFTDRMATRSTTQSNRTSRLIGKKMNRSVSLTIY
How it was run: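 EC50 values come from the per-well fraction of cells with nuclear pCdk1 Y15 staining, normalised to DMSO control, by automated immunofluorescence imaging. Cells were ACHN renal carcinoma, treated 4 h with compound at 7–5,000 nM or 0.3–200 nM.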

[3] = target: T3, Myt1 kinase (recombinant PMYT-1) (Homo sapiens, UniProt Q99640); assay: Myt1 kinase binding assay (LanthaScreen Eu Kinase Binding Assay); settings: 3 nM tracer 178, 2.5 nM PMYT-1, 1 nM Eu-labeled antibody; read-out: Myt1 kinase Binding IC50
T3 construct: full length PMYT-1 was expressed by baculovirus in insect cells; purchased Invitrogen A30984; host or cells: insect cells (baculovirus)
T3 sequence (Q99640 1-499): T1 sequence (Q99640 1-499)
How it was run: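 Compound binding to Myt1 kinase was assessed using the LanthaScreen Eu Kinase Binding Assay. This europium-based binding format was applied to quantify how strongly each compound bound to the Myt1 enzyme, and the binding affinity was reported for each compound as an IC50 value.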

[4] = target: T4, recombinant human Wee1A kinase (Homo sapiens, UniProt P30291); assay: Wee1A kinase binding assay (LanthaScreen Eu time-resolved FRET); settings: 30 nM tracer 178, 5 nM Wee1A kinase, 2 nM Eu-labeled antibody; 60 minutes at room temperature; read-out: Wee1A kinase Binding IC50
T4 construct: full length Wee1 kinase was expressed by baculovirus in insect cells; purchased Invitrogen PV3817; host or cells: insect cells (baculovirus)
T4 sequence (P30291 whole entry): as above
How it was run: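 Full-length, baculovirus-expressed GST-tagged Wee1A (5 nM) was mixed with 2 nM Eu-anti-GST antibody, 30 nM kinase tracer 178 and compound (1% DMSO). Buffer was 50 mM HEPES pH 7.5, 10 mM MgCl2, 1 mM EGTA, 0.01% Brij-35, incubated 60 min at room temperature. TR-FRET 665/615 nm emission ratios from duplicates were curve-fitted.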

EC50 (ACHN cells)	EC50 [1]	EC50 [2]	IC50 [3]	IC50 [4]	SMILES
≤ 100 nM	< 200 nM	< 100 nM	20 to 100 nM	< 10 nM	[2H]C([2H])([2H])N1CCC(Oc2cccc(-n3c4nc(Nc5ccc6c(cnn6C)c5)ncc4c(=O)n3CC=C)n2)CC1 [Compound 281, 2-allyl-6-((1-methyl-1H-indazol-5-yl)amino)-1-(6-((1-(methyl-d3)piperidin-4-yl)oxy)pyridin-2-yl)-1,2-dihydro-3H-pyrazolo[3,4-d]pyrimidin-3-one]
≤ 100 nM	< 200 nM	< 100 nM	20 to 100 nM	< 10 nM	C=CCn1c(=O)c2cnc(Nc3ccc(OCCF)cc3)nc2n1-c1ccnc(OC2CCN(C)CC2)n1 [Compound 388, 2-allyl-6-((4-(2-fluoroethoxy)phenyl)amino)-1-(2-((1-methylpiperidin-4-yl)oxy)pyrimidin-4-yl)-1,2-dihydro-3H-pyrazolo[3,4-d]pyrimidin-3-one]
≤ 100 nM	200 to 500 nM	< 100 nM	20 to 100 nM	< 10 nM	C=CCn1c(=O)c2cnc(Nc3ccc4c(c3)c(C)nn4C)nc2n1-c1cccc(OC2CCN(C)CC2)n1 [Compound 346, 2-allyl-6-((1,3-dimethyl-1H-indazol-5-yl)amino)-1-(6-((1-methylpiperidin-4-yl)oxy)pyridin-2-yl)-1,2-dihydro-3H-pyrazolo[3,4-d]pyrimidin-3-one]
≤ 100 nM	< 200 nM	< 100 nM	20 to 100 nM	< 10 nM	CCn1c(=O)c2cnc(Nc3ccc(-c4cnn(C)c4)cc3)nc2n1-c1cccc(OC2CCN(C)CC2)n1 [Compound 277, 2-ethyl-1-[6-(1-methyl-4-piperidyloxy)-2-pyridyl]-6-[p-(1-methyl-4-pyrazolyl)phenylamino]-1,2-dihydro-3H-1,2,5,7-tetraazainden-3-one]
≤ 100 nM	< 200 nM	< 100 nM	< 20 nM	< 10 nM	C=CCn1c(=O)c2cnc(Nc3ccc4c(cnn4C4CC4)c3)nc2n1-c1cccc(OC2CCN(C)CC2)n1 [Compound 386, 2-allyl-6-((1-cyclopropyl-1H-indazol-5-yl)amino)-1-(6-((1-methylpiperidin-4-yl)oxy)pyridin-2-yl)-1,2-dihydro-3H-pyrazolo[3,4-d]pyrimidin-3-one]
≤ 100 nM	200 to 500 nM	< 100 nM	20 to 100 nM	< 10 nM	C=CCn1c(=O)c2cnc(Nc3ccc4cn(C)nc4c3)nc2n1-c1cccc(OC2CCN(C)CC2)n1 [Compound 398, 2-allyl-6-((2-methyl-2H-indazol-6-yl)amino)-1-(6-((1-methylpiperidin-4-yl)oxy)pyridin-2-yl)-1,2-dihydro-3H-pyrazolo[3,4-d]pyrimidin-3-one]
≤ 100 nM	< 200 nM	< 100 nM	20 to 100 nM	< 10 nM	C=CCn1c(=O)c2cnc(Nc3ccc4c(cnn4CCCF)c3)nc2n1-c1cccc(OC2CCN(C)CC2)n1 [Compound 387, 2-allyl-6-((1-(3-fluoropropyl)-1H-indazol-5-yl)amino)-1-(6-((1-methylpiperidin-4-yl)oxy)pyridin-2-yl)-1,2-dihydro-3H-pyrazolo[3,4-d]pyrimidin-3-one]
≤ 100 nM	< 200 nM	< 100 nM	20 to 100 nM	< 10 nM	C=CCn1c(=O)c2cnc(Nc3ccc4c(cnn4C)c3)nc2n1-c1cccc(O[C@@H]2CCN(C)[C@@H](C)C2)n1 (stereo in doubt) [Compound 403, rel-2-allyl-1-(6-(((2R,4S)-1,2-dimethylpiperidin-4-yl)oxy)pyridin-2-yl)-6-((1-methyl-1H-indazol-5-yl)amino)-1,2-dihydro-3H-pyrazolo[3,4-d]pyrimidin-3-one]
≤ 100 nM	> 1000 nM	< 100 nM	20 to 100 nM	< 10 nM	C=CCn1c(=O)c2cnc(Nc3ccc4c(ccn4C(C)=O)c3)nc2n1-c1cccc(OC2CCNCC2)n1 [Compound 384]
≤ 100 nM	500 to 1000 nM	< 100 nM	20 to 100 nM	< 10 nM	C=CCn1c(=O)c2cnc(Nc3ccc4c(cnn4CCCF)c3)nc2n1-c1cccc(OC2CCNCC2)n1 [Compound 397, 2-allyl-6-((1-(3-fluoropropyl)-1H-indazol-5-yl)amino)-1-(6-(piperidin-4-yloxy)pyridin-2-yl)-1,2-dihydro-3H-pyrazolo[3,4-d]pyrimidin-3-one]
≤ 100 nM	200 to 500 nM	< 100 nM	20 to 100 nM	< 10 nM	[2H]C([2H])([2H])c1cccc(Nc2ncc3c(=O)n(CC=C)n(-c4cccc(OC5CCN(C)CC5)n4)c3n2)c1 [Compound 333, 2-allyl-6-((3-(methyl-d3)phenyl)amino)-1-(6-((1-methylpiperidin-4-yl)oxy)pyridin-2-yl)-1,2-dihydro-3H-pyrazolo[3,4-d]pyrimidin-3-one]
≤ 100 nM	< 200 nM	< 100 nM	20 to 100 nM	< 10 nM	C=CCn1c(=O)c2cnc(Nc3ccc(N4CCOCC4)cc3)nc2n1-c1cccc(OC2CCN(C)CC2)n1 [Compound 278, 2-allyl-1-(6-((1-methylpiperidin-4-yl)oxy)pyridin-2-yl)-6-((4-morpholinophenyl)amino)-1,2-dihydro-3H-pyrazolo[3,4-d]pyrimidin-3-one]
≤ 100 nM	< 200 nM	< 100 nM	< 20 nM	< 10 nM	C=CCn1c(=O)c2cnc(Nc3ccc4c(cnn4CC(C)C)c3)nc2n1-c1cccc(OC2CCN(C)CC2)n1 [Compound 394, 2-allyl-6-((1-isobutyl-1H-indazol-5-yl)amino)-1-(6-((1-methylpiperidin-4-yl)oxy)pyridin-2-yl)-1,2-dihydro-3H-pyrazolo[3,4-d]pyrimidin-3-one]
≤ 100 nM	200 to 500 nM	< 100 nM	20 to 100 nM	< 10 nM	C=CCn1c(=O)c2cnc(Nc3ccc(F)c(C)c3)nc2n1-c1cccc(OC2CCN(C)CC2)n1 [Compound 206, 6-[(4-fluoro-3-methylphenyl)amino]-1-{6-[(1-methylpiperidin-4-yl)oxy]pyridin-2-yl}-2-(prop-2-en-1-yl)-1H,2H,3H-pyrazolo[3,4-d]pyrimidin-3-one]
